Data taken from US12157730B2, “Heteroaryl derivative, method for producing same, and pharmaceutical composition comprising same as effective component” (VORONOI INC., priority 2019, dated 2024).

Target: T1, Ba/F3 cell EGFR Exon20 ins NPH (Homo sapiens, UniProt P00533, INS773NPH)
T1 construct: expressed in transfected cells; host or cells: Ba/F3
Experiment: Ba/F3 cell proliferation suppression, EGFR Exon20 ins NPH
Assay type: cell-based
Settings: GI50 class; Ba/F3 cell line with NPH inserted at Exon20 of EGFR; 72 hours
Summary of the method: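 Growth suppression determined as GI50 following 72 h exposure across 12 concentrations up to 50 um, with viability by luminescent ATP assay (CellTiter-Glo).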

Ba/F3 (NPH) Activity	Compound
A (GI50 < 50 nM)	C=CC(=O)Nc1cc(Nc2cc(N3OCC[C@@H]3c3ccccc3)ncn2)c(OC)cc1N1CCN(CCN(C)C)CC1 [Example 278, N-(2-(4-(2-(dimethylamino)ethyl)piperazine-1-yl)-4-methoxy-5-((6-((R)-3-phenylisoxazolidine-2-yl)pyrimidine-4-yl)amino)phenyl) acrylamide]
B (50 nM ≤ GI50 < 500 nM)	C=CC(=O)Nc1cc(Nc2cc(N3OCC[C@@H]3c3ccc(C)nc3)ncn2)c(OC)cc1N1CCN(CC)CC1 [Example 42, N-(2-(4-ethylpiperazine-1-yl)-4-methoxy-5-((6((R)-3-(6-methylpyridine-3-yl)isoxazolidine-2-yl)pyrimidine-4-yl)amino)phenyl) acrylamide]
A (GI50 < 50 nM)	C=CC(=O)Nc1cc(Nc2cc(N3OCC[C@@H]3c3cccc(Cl)c3C)ncn2)c(OC)cc1N1CCC(N2C[C@H]3C[C@@H]2CO3)CC1 [compound 532, N-(2-(4-((1R,4R)-2-oxa-5-azabicyclo[2.2.1]heptane-5-yl)piperidine-1-yl)-5-((6-((R)-3-(3-chloro-2-methylphenyl)isoxazolidine-2-yl)pyrimidine-4-yl)amino)-4-methoxyphenyl) acrylamide]
A (GI50 < 50 nM)	C=CC(=O)Nc1cc(Nc2cc(N3OCC[C@@H]3c3ccc(F)cc3F)ncn2)c(OC)cc1N1CCC(N2CCN(C(C)C)CC2)CC1 [compound 428, N-(5-((6-((R)-3-(2,4-difluorophenyl)isoxazolidine-2-yl)pyrimidine-4-yl)amino)-2-(4-(4-isopropylpiperazine-1-yl)piperidine-1-yl)-4-methoxyphenyl) acrylamide]
A (GI50 < 50 nM)	C=CC(=O)Nc1cc(Nc2cc(N3OCC[C@@H]3c3ccc(F)c(Cl)c3F)ncn2)c(OC)cc1N1CCO[C@@H](C)C1 [compound 657, N-(5-((6-((R)-3-(3-chloro-2,4-difluorophenyl)isoxazolidine-2-yl)pyrimidine-4-yl)amino)-4-methoxy-2-((S)-2-methylmorpholino)phenyl)acrylamide]
A (GI50 < 50 nM)	C=CC(=O)Nc1cc(Nc2cc(N3OCC[C@@H]3c3cccc(OC)c3)ncn2)c(OC)cc1N1CC[C@@H](N(C)C)C1 [compound 776, N-(2-((R)-3-(dimethylamino)pyrolidine-1-yl)-4-methoxy-5-((6-((R)-3-(3-methoxyphenyl)isoxazolidine-2-yl)pyrimidine-4-yl)amino)phenyl)acrylamide]
A (GI50 < 50 nM)	C=CC(=O)Nc1cc(Nc2cc(N3OCC[C@@H]3c3cc(F)ccc3F)ncn2)c(OC)cc1N1CCC(N2CCN(C3CCCC3)CC2)CC1 [Example 100, N-(2-(4-(4-cyclopentylpiperazine-1-yl)piperidine-1-yl)-5-((6-((R)-3-(2,5-difluorophenyl)isoxazolidine-2-yl)pyrimidine-4-yl)amino)-4-methoxyphenyl) acrylamide]
A (GI50 < 50 nM)	C=CC(=O)Nc1cc(Nc2cc(N3OCC[C@@H]3c3c(F)ccc(F)c3Cl)ncn2)c(OC)cc1N1CCC(N2CCN(C3CC3)[C@H](C)C2)CC1 [compound 935, N-(5-((6-((R)-3-(2-chloro-3,6-difluorophenyl)isoxazolidine-2-yl)pyrimidine-4-yl)amino)-2-(4-((R)-4-cyclopropyl-3-methylpiperazine-1-yl)piperidine-1-yl)-4-methoxyphenyl) acrylamide]
B (50 nM ≤ GI50 < 500 nM)	C=CC(=O)Nc1cc(Nc2cc(N3OCC[C@@H]3c3ccc(Cl)c(Cl)c3F)ncn2)c(OC)cc1N1CC[C@@H](N(C)C)C1 [Example 291, N-(5-((6-((R)-3-(3,4-dichloro-2-fluorophenyl)isoxazolidine-2-yl)pyrimidine-4-yl)amino)-2-((R)-3-(dimethylamino)pyrolidine-1-yl)-4-methoxyphenyl) acrylamide]
A (GI50 < 50 nM)	C=CC(=O)Nc1cc(Nc2cc(N3OCC[C@@H]3c3ccc(F)cc3F)ncn2)c(OC)cc1N1CCN(C(C)=O)CC1 [compound 343]
A (GI50 < 50 nM)	C=CC(=O)Nc1cc(Nc2cc(N3OCC[C@@H]3c3cccc(OC)c3)ncn2)c(OC)cc1N1CCC(N2CC[C@H](N(C)C)C2)CC1 [compound 729, N-(2-(4-((S)-3-(dimethylamino)pyrolidine-1-yl)piperidine-1-yl)-4-methoxy-5-((6-((R)-3-(3-methoxyphenyl)isoxazolidine-2-yl)pyrimidine-4-yl)amino)phenyl)acrylamide]
A (GI50 < 50 nM)	C=CC(=O)Nc1cc(Nc2cc(N3OCC[C@@H]3Cc3ccccc3)ncn2)c(OC)cc1N1CCC(N2CCN(C)CC2)CC1 [compound 963, N-(5-((6-((S)-3-benzylisoxazolidine-2-yl)pyrimidine-4-yl)amino)-4-methoxy-2-(4-(4-methylpiperazine-1-yl)piperidine-1-yl)phenyl)acrylamide]
A (GI50 < 50 nM)	C=CC(=O)Nc1cc(Nc2cc(N3OCC[C@@H]3c3cccc(C)c3F)ncn2)c(OC)cc1N1CCN(C)CC1 [compound 845, N-(5-((6-((R)-3-(2-fluoro-3-methylphenyl)isoxazolidine-2-yl)pyrimidine-4-yl)amino)-4-methoxy-2-(4-methylpiperazine-1-yl)phenyl)acrylamide]
A (GI50 < 50 nM)	C=CC(=O)Nc1cc(Nc2cc(N3OCC[C@@H]3c3ccc(F)c(Cl)c3)ncn2)c(OC)cc1N1CCC(N2C[C@@H]3C[C@H]2CO3)CC1 [compound 716, N-(2-(4-((1S,4S)-2-oxa-5-azabicyclo[2.2.1]heptane-5-yl)piperidine-1-yl)-5-((6-((R)-3-(3-chloro-4-fluorophenyl)isoxazolidine-2-yl)pyrimidine-4-yl)amino)-4-methoxyphenyl) acrylamide]
A (GI50 < 50 nM)	C=CC(=O)Nc1cc(Nc2cc(N3OCC[C@@H]3Cc3cccc(F)c3)ncn2)c(OC)cc1N(C)CCN(C)C [compound 992, N-(2-((2-(dimethylamino)ethyl) (methyl)amino)-5-((6-((S)-3-(3-fluorobenzyl)isoxazolidine-2-yl)pyrimidine-4-yl)amino)-4-methoxyphenyl) acrylamide]
B (50 nM ≤ GI50 < 500 nM)	C=CC(=O)Nc1cc(Nc2cc(N3OCC[C@@H]3c3cccc(OC)c3)ncn2)c(OC)cc1N1CCC(N2CCN(C)CC2)CC1 [Example 40, N-(4-methoxy-5-((6-((R)-3-(3-methoxyphenyl)isoxazolidine-2-yl)pyrimidine-4-yl)amino)-2-(4-(4-methylpiperazine-1-yl)piperidine-1-yl)phenyl) acrylamide]
A (GI50 < 50 nM)	C=CC(=O)Nc1cc(Nc2cc(N3OCC[C@@H]3c3c(F)ccc(F)c3Cl)ncn2)c(OC)cc1N1CCC(N2C[C@H]3C[C@@H]2CO3)CC1 [compound 692, N-(2-(4-((1R,4R)-2-oxa-5-azabicyclo[2.2.1]heptane-5-yl)piperidine-1-yl)-5-((6-((R)-3-(2-chloro-3,6-difluorophenyl)isoxazolidine-2-yl)pyrimidine-4-yl)amino)-4-methoxyphenyl) acrylamide]
A (GI50 < 50 nM)	C=CC(=O)Nc1cc(Nc2cc(N3OCC[C@@H]3Cc3ccccc3)ncn2)c(OC)cc1N1CCN(CC)CC1 [compound 946, N-(5-((6-((S)-3-benzylisoxazolidine-2-yl)pyrimidine-4-yl)amino)-2-(4-ethylpiperazine-1-yl)-4-methoxyphenyl) acrylamide]
A (GI50 < 50 nM)	C=CC(=O)Nc1cc(Nc2cc(N3OCC[C@@H]3c3ccc(F)cc3F)ncn2)c(OC)cc1N1CCN(CC2CC2)CC1 [compound 380, N-(2-(4-(cyclopropylmethyl)piperazine-1-yl)-5-((6-((R)-3-(2,4-difluorophenyl)isoxazolidine-2-yl)pyrimidine-4-yl)amino)-4-methoxyphenyl) acrylamide]
A (GI50 < 50 nM)	C=CC(=O)Nc1cc(Nc2cc(N3OCC[C@@H]3Cc3cccc(Cl)c3F)ncn2)c(OC)cc1N1CCC(N2C[C@H]3C[C@@H]2CO3)CC1 [compound 1021, N-(2-(4-((1R,4R)-2-oxa-5-azabicyclo [2.2.1]heptane-5-yl)piperidine-1-yl)-5-((6-((S)-3-(3-chloro-2-fluorobenzyl)isoxazolidine-2-yl)pyrimidine-4-yl)amino)-4-methoxyphenyl) acrylamide]
A (GI50 < 50 nM)	C=CC(=O)Nc1cc(Nc2cc(N3OCC[C@@H]3c3ccccc3)ncn2)c(OC)cc1N1CCC(N2CCN(C3CC3)CC2)CC1 [Example 56, N-(2-(4-(4-cyclopropylpiperazine-1-yl)piperidine-1-yl)-4-methoxy-5-((6-((R)-3-phenylisoxazolidine-2-yl)pyrimidine-4-yl)amino)phenyl) acrylamide]
A (GI50 < 50 nM)	C=CC(=O)Nc1cc(Nc2cc(N3OCC[C@@H]3Cc3ccccc3)ncn2)c(OC)cc1N1C[C@@H]2C[C@H]1CN2CC [compound 950, N-(5-((6-((S)-3-benzylisoxazolidine-2-yl)pyrimidine-4-yl)amino)-2-((1S,4S)-5-ethyl-2,5-diazabicyclo [2.2.1]heptane-2-yl)-4-methoxyphenyl) acrylamide]
A (GI50 < 50 nM)	C=CC(=O)Nc1cc(Nc2cc(N3OCC[C@@H]3Cc3cccc(Cl)c3F)ncn2)c(OC)cc1N1CCC(N2C[C@@H]3C[C@H]2CO3)CC1 [compound 1022, N-(2-(4-((1S,4S)-2-oxa-5-azabicyclo [2.2.1]heptane-5-yl)piperidine-1-yl)-5-((6-((S)-3-(3-chloro-2-fluorobenzyl)isoxazolidine-2-yl)pyrimidine-4-yl)amino)-4-methoxyphenyl) acrylamide]

Compound	Ba/F3 (NPH) Activity
N-(5-((6-((R)-3-(3,4- difluorophenyl) isoxazolidine-2-yl) pyrimidine-4-yl)amino)- 2-(4-((S)-3- (dimethylamino) pyrolidine-1-yl) piperidine-1-yl)-4- methoxyphenyl) acrylamide [compound 500]	A (GI50 < 50 nM)
